Measured values published in PubChem BioAssay (NCI).
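Compound exposure: 48 hours, 5 concentrations, 96-well plates. TGI: concentration producing complete growth inhibition.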

Columns and labels:
Experiment in all cases: DTP human tumour cell line panel, 48 h
SK-MEL-2 melanoma = test system: SK-MEL-2 melanoma
UO-31 renal = test system: UO-31 renal
SK-MEL-28 melanoma = test system: SK-MEL-28 melanoma
SNB-75 CNS = test system: SNB-75 CNS
U251 CNS = test system: U251 CNS
DU-145 prostate = test system: DU-145 prostate
SK-MEL-5 melanoma = test system: SK-MEL-5 melanoma
SN12C renal = test system: SN12C renal
HCT-116 colon = test system: HCT-116 colon
BT-549 breast = test system: BT-549 breast
RPMI-8226 leukemia = test system: RPMI-8226 leukemia

Measured: TGI

Cc1cnc2sn(-c3ccc(Br)cc3)c(=O)c2c1
> 100 µM: all assays above

CCOC(=O)NN(C(=O)OCC)c1c(C)cc(C)cc1C
> 100 µM: all assays above

Cc1ccc2c(/C=C/c3ccc(N(C)C)cc3)ccc(C(C)C)cc1-2
> 100 µM: all assays above
